According to US9000022B2 (Exelixis Patent Company LLC, priority 2005, dated 2015):

What follows are compounds tested on LXRα and/or LXRβ (assay: Co-transfection assay (LXRE luciferase reporter, CV-1 cells)). Conditions: tested as described in Example 33; IC50 or EC50 for LXRα and/or LXRβ, isoform not specified; read-out: activity (IC50 or EC50 for LXR).
Format: cell-based, human
Method in brief: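 CV-1 cells transiently co-transfected with full-length human LXRα or LXRβ plus RXRα, an LXRE×1-Tk-luciferase reporter and a β-galactosidase control. Compounds incubated 20 h at 37 °C (≤1% DMSO; screen at 10 μM final); luciferase read after lysis. EC50/IC50 from 8-point half-log curves (4 wells per point, ≥3 experiments); efficacy relative to a reference agonist high control and DMSO.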

Structure (SMILES) | IC50 or EC50 (potency, activation or inhibition) [µM]
CCS(=O)(=O)c1cccc(-c2ccc(-n3cc(C(C)(C)O)nc3-c3c(F)cccc3F)cc2)c1 [Example 419, 2-{2-(2,6-difluorophenyl)-1-[3′-(ethylsulfonyl)biphenyl-4-yl]-1H-imidazol-4-yl}propan-2-ol] | 1 to 10
Cc1cccc(Cl)c1-c1nc(C(C)(C)O)cn1-c1ccc(-c2cccc(S(C)(=O)=O)c2)cc1Cl [Example 156, 2-(1-(3-chloro-3′-(methyl-sulfonyl)biphenyl-4-yl)-2-(2-chloro-6-methylphenyl)-1H-imidazol-4-yl)propan-2-ol] | < 1
CCS(=O)(=O)c1cccc(-c2ccc(-n3cc(C(C)(C)O)nc3-c3cccc(F)c3Cl)c(F)c2)c1 [Example 124, 2-(2-(2-chloro-3-fluorophenyl)-1-(3′-(ethylsulfonyl)-3-fluorobiphenyl-4-yl)-1H-imidazol-4-yl)propan-2-ol] | < 1
FC(F)(F)c1cn(-c2ccc(Br)cc2)c(-c2ccccc2C(F)(F)F)n1 [Example 363, 1-(4-bromophenyl)-4-(trifluoromethyl)-2-[2-(trifluoromethyl)phenyl]-1H-imidazole] | 1 to 10
CC(C)(O)c1cn(-c2ccc(-c3ccc(C(=O)NCc4ccccc4)c(S(C)(=O)=O)c3)cc2Cl)c(-c2c(F)cccc2Cl)n1 [Example 80, N-benzyl-3′-chloro-4′-(2-(2-chloro-6-fluorophenyl)-4-(2-hydroxypropan-2-yl)-1H-imidazol-1-yl)-3-(methyl-sulfonyl)biphenyl-4-carboxamide] | 1 to 10
CS(=O)(=O)c1cccc(-c2ccc(-n3cc(C(=O)NCCO)nc3-c3c(Cl)cccc3Cl)c(Cl)c2)c1 [Example 470, 1-(3-chloro-3′-(methylsulfonyl)biphenyl-4-yl)-2-(2,6-dichlorophenyl)-N-(2-hydroxyethyl)-1H-imidazole-4-carboxamide] | < 1
CCN(CC)C(=O)c1cn(-c2ccc(-c3cccc(S(C)(=O)=O)c3)cc2C)c(-c2c(Cl)cccc2Cl)n1 [Example 86, 2-(2,6-dichlorophenyl)-N,N-diethyl-1-(3-methyl-3′-(methylsulfonyl)biphenyl-4-yl)-1H-imidazole-4-carboxamide] | < 1
Cc1cc(-c2cccc(S(C)(=O)=O)c2)ccc1-n1cc(C(C)(C)O)nc1-c1ccccc1C(F)(F)F [Example 183, 2-(1-(3-methyl-3′-(methyl-sulfonyl)biphenyl-4-yl)-2-(2-(trifluoromethyl)phenyl)-1H-imidazol-4-yl)propan-2-ol] | < 1
CC(C)(O)c1cn(-c2ccc(-c3cccc(S(C)(=O)=O)c3)cc2)c(-c2ccccc2Cl)n1 [Example 379, 2-{2-(2-chlorophenyl)-1-[3′-(methylsulfonyl)biphenyl-4-yl]-1H-imidazol-4-yl}propan-2-ol] | < 1
CCS(=O)(=O)c1cccc(-c2ccc(-n3cc(C(C)(C)O)nc3-c3ccccc3C(C)C)c(C)c2)c1 [Example 196, 2-(1-(3′-(ethylsulfonyl)-3-methyl-biphenyl-4-yl)-2-(2-isopropyl-phenyl)-1H-imidazol-4-yl)propan-2-ol] | < 1
CCS(=O)(=O)c1cccc(-c2ccc(-c3nc(C(C)(C)O)cn3-c3c(Cl)cccc3Cl)c(Cl)c2)c1 [Example 66, 2-(2-(3-chloro-3′-(ethyl-sulfonyl)biphenyl-4-yl)-1-(2,6-dichlorophenyl)-1H-imidazol-4-yl)propan-2-ol] | < 1
Cc1cccc(Cl)c1-c1nc(C(C)(C)O)cn1-c1ccc(-c2ccc(CO)c(S(C)(=O)=O)c2)cc1Cl [Example 155, 2-(1-(3-chloro-4′-(hydroxy-methyl)-3′-(methylsulfonyl)biphenyl-4-yl)-2-(2-chloro-6-methylphenyl)-1H-imidazol-4-yl)propan-2-ol] | < 1
CC(C)(O)c1cn(-c2ccc(-c3cccc(S(C)(=O)=O)c3)cc2)c(-c2cccc(F)c2Cl)n1 [Example 383, 2-{2-(2-chloro-3-fluorophenyl)-1-[3′-(methylsulfonyl)biphenyl-4-yl]-1H-imidazol-4-yl}propan-2-ol] | < 1
CCS(=O)(=O)c1cccc(-c2ccc(-n3cc(C(=O)NCCO)nc3-c3c(Cl)cccc3Cl)c(Cl)c2)c1 [Example 471, 1-(3-chloro-3′-(ethylsulfonyl)biphenyl-4-yl)-2-(2,6-dichlorophenyl)-N-(2-hydroxyethyl)-1H-imidazole-4-carboxamide] | < 1
CCS(=O)(=O)c1cccc(-c2ccc(-c3nc(C(C)(C)O)cn3-c3c(Cl)cccc3Cl)c(C)c2)c1 [Example 58, 2-(1-(2,6-dichlorophenyl)-2-(3′-(ethylsulfonyl)-3-methylbiphenyl-4-yl)-1H-imidazol-4-yl)propan-2-ol] | < 1
Cc1cc(-c2cccc(S(C)(=O)=O)c2)ccc1-n1cc(C(C)(C)O)nc1-c1cccc(Cl)c1C [Example 189, 2-(2-(3-chloro-2-methylphenyl)-1-(3-methyl-3′-(methylsulfonyl)biphenyl-4-yl)-1H-imidazol-4-yl)propan-2-ol] | < 1

Structure (SMILES) | IC50 or EC50 (potency, activation or inhibition) [µM]
CCS(=O)(=O)c1cccc(-c2ccc(-c3nc(C(C)(C)O)cn3-c3c(Cl)cccc3Cl)s2)c1 [Example 45, 2-(1-(2,6-dichlorophenyl)-2-(5-(3-(ethylsulfonyl)phenyl)thiophen-2-yl)-1H-imidazol-4-yl)propan-2-ol] | 1 to 10
CCOC(=O)c1cn(-c2ccc(Br)cc2)c(-c2ccccc2C(F)(F)F)n1 [Example 366, ethyl 1-(4-bromophenyl)-2-[2-(trifluoromethyl)phenyl]-1H-imidazole-4-carboxylate] | 1 to 10
CCS(=O)(=O)c1cccc(-c2ccc(-n3cc(C(C)(C)O)nc3-c3cccc(Cl)c3Cl)c(F)c2)c1 [Example 114, 2-(2-(2,3-dichlorophenyl)-1-(3′-(ethylsulfonyl)-3-fluorobiphenyl-4-yl)-1H-imidazol-4-yl)propan-2-ol] | < 1
CCS(=O)(=O)c1cccc(-c2ccc(-n3cc(C(C)(C)O)nc3-c3ccccc3C(F)(F)F)c(C)c2)c1 [Example 184, 2-(1-(3′-(ethylsulfonyl)-3-methyl-biphenyl-4-yl)-2-(2-(trifluoro-methyl)phenyl)-1H-imidazol-4-yl)propan-2-ol] | < 1
CC(C)(O)c1cn(-c2ccc(-c3ccc(CO)c(S(C)(=O)=O)c3)cc2)c(-c2c(F)cccc2F)n1 [Example 103, 2-(2-(2,6-difluorophenyl)-1-(4′-(hydroxymethyl)-3′-(methyl-sulfonyl)biphenyl-4-yl)-1H-imidazol-4-yl)propan-2-ol] | 1 to 10
CC(C)(O)c1ccc(-c2ccc(-n3cc(C(C)(C)O)nc3-c3cccc(Cl)c3Cl)cc2)cc1 [Example 477, 2-(2-(2,3-dichlorophenyl)-1-(4′-(2-hydroxypropan-2-yl)biphenyl-4-yl)-1H-imidazol-4-yl)propan-2-ol] | 1 to 10
CC(C)(O)c1cccc(-c2ccc(-n3cc(C(C)(C)O)nc3-c3ccccc3Cl)cc2)c1 [Example 409, 2-{2-(2-chlorophenyl)-1-[3′-(1-hydroxy-1-methylethyl)biphenyl-4-yl]-1H-imidazol-4-yl}propan-2-ol] | 1 to 10
CC(C)(O)c1cn(-c2ccc(-c3cccc(CO)c3)cc2)c(-c2cccc(Cl)c2Cl)n1 [Example 476, 2-(2-(2,3-dichlorophenyl)-1-(3′-(hydroxymethyl)biphenyl-4-yl)-1H-imidazol-4-yl)propan-2-ol] | 1 to 10
CC(C)S(=O)(=O)c1cccc(-c2ccc(-n3cc(C(F)(F)F)nc3-c3ccccc3C(F)(F)F)nc2)c1 [Example 372, 5-{3-[(1-methylethyl)sulfonyl]phenyl}-2-{4-(trifluoromethyl)-2-[2-(trifluoro-methyl)phenyl]-1H-imidazol-1-yl}pyridine] | < 1
CS(=O)(=O)c1cccc(-c2ccc(-n3cc(C(F)(F)F)nc3-c3ccccc3Cl)nc2)c1 [Example 370, 2-[2-(2-chlorophenyl)-4-(trifluoro-methyl)-1H-imidazol-1-yl]-5-[3-(methylsulfonyl)phenyl]pyridine] | < 1
CCS(=O)(=O)c1cccc(-c2ccc(-n3cc(C(C)(C)O)nc3-c3c(C)cccc3Cl)c(F)c2)c1 [Example 129] | < 1
C=C(C)c1cn(-c2ccc(-c3cccc(S(=O)(=O)CC)c3)cc2)c(-c2cccc(Cl)c2Cl)n1 [Example 77, 2-(2,3-dichlorophenyl)-1-(3′-(ethylsulfonyl)biphenyl-4-yl)-4-(prop-1-en-2-yl)-1H-imidazole] | < 1
CC(C)(O)c1cn(-c2ccc(-c3ccc4c(c3)S(=O)(=O)CC4O)cc2Cl)c(-c2c(F)cccc2Cl)n1 (stereo not shown) [Example 469, 6-{3-chloro-4-[2-(2-chloro-6-fluorophenyl)-4-(1-hydroxy-1-methylethyl)-1H-imidazol-1-yl]phenyl}-2,3-dihydro-1-benzo-thiophene-3-ol 1,1-dioxide] | 1 to 10
CCS(=O)(=O)c1cccc(-c2ccc(-n3cc(C(C)(C)O)nc3-c3c(F)cccc3F)c(C)c2)c1 [Example 194, 2-(2-(2,6-difluorophenyl)-1-(3′-(ethylsulfonyl)-3-methylbiphenyl-4-yl)-1H-imidazol-4-yl)propan-2-ol] | < 1
CC(C)(O)c1cn(-c2ccc(-c3cccc(S(C)(=O)=O)c3)cc2F)c(-c2ccccc2Cl)n1 [Example 386, 2-{2-(2-chlorophenyl)-1-[3-fluoro-3′-(methylsulfonyl)biphenyl-4-yl]-1H-imidazol-4-yl}propan-2-ol] | < 1
